Series [1] relates to estrogen sulfotransferase. The following applies: pathway of metabolism of birth control pill ingredients; cited from earlier work.
The subject of the next series is patient-derived neurons. The series is described as follows: Spike frequency of patient-derived neurons exposed to an anticonvulsant. The series is classed as cell-based. The following applies: for spike frequency: in DMSO versus DMSO alone. An excerpt:
FIG. 52 illustrates the results of exposing patient-derived neurons to acute doses of an anticonvulsant. A frequency of spiking is plotted over unitless scaled stimulus strength. Angled vertical lines are drawn onto the graph to aid in showing which data points correspond to one another. Asterisks are used to indicate a significance of a difference. […] FIG. 53 illustrates the results of exposing patient-derived neurons to chronic doses of an anticonvulsant. A frequency of spiking is plotted over unitless scaled stimulus strength. After exposure to STR in DMSO (versus exposure to the DMSO alone), spike frequency is decreased. […] Thus it can be seen that methods and compositions of the invention may be used to evaluate signal propagation between cells such as cardiomyocytes or neurons.

A further series concerns neurons. An excerpt: Methods of the invention may be used to evaluate the effects of compounds on neurons. In some embodiments, the cells that include the optical voltage reporter are neurons and those neurons are exposed to a voltage-gated potassium channel blocker such as tetraethylammonium.
Series [2] relates to membrane voltage. The following applies: literature indicators; cited from earlier work.
Another series relates to HEK 293T cells. The series is described as follows: Arch fluorescence versus membrane potential in HEK cells under whole-cell voltage clamp. The series is classed as cell-based, human. An excerpt: An optical reporter such as Arch 3 may be expressed in human embryonic kidney 293 (HEK293T) cells. Fluorescence of Arch 3 in HEK 293T cells was readily imaged in an inverted fluorescence microscope with red illumination (=640 nm, I=540 W/cm2), a high numerical aperture objective, a Cy5 filter set, and an EMCCD camera.
Fluorescence of Arch 3 in HEK 293 cells was readily imaged in an inverted fluorescence microscope with red illumination (lambda=640 nm, I=540 W/cm̂2), a high numerical aperture objective, a Cy5 filter set, and an EMCCD camera. […] Cells not expressing Arch were not fluorescent.
The fluorescence of HEK cells expressing Arch was highly sensitive to membrane potential, as determined via whole-cell voltage clamp. We developed an algorithm to combine pixel intensities in a weighted sum such that the output, was a nearly optimal estimate of membrane potential V determined by conventional electrophysiology.
The fluorescence was divided by its value at −150 mV. The fluorescence increased by a factor of 2 between −150 mV and +150 mV, with a nearly linear response throughout this range (FIG. 35). The response of fluorescence to a step in membrane potential occurred within the 500 micro s time resolution of our imaging system on both the rising and falling edge.
The overshoots on the rising and falling edges were an artifact of electronic compensation circuitry. Data were an average of 20 cycles. […] Cells not expressing Arch 3 were not fluorescent. […] Application of a sinusoidally varying membrane potential led to sinusoidally varying fluorescence; at f=1 kHz, the fluorescence oscillations retained 55% of their low-frequency amplitude (FIG. 37). Arch reported voltage steps as small as 10 mV, with an accuracy of 625 micro V/(Hz)̂(1/2) over timescales<12 s (FIG. 38). Over longer timescales laser power fluctuations and cell motion degraded the accuracy.

The subject of series [3] is membrane voltage. The series is described as follows: Speed and sensitivity of fluorescent voltage indicators.
From the text: Membrane voltage can be measured with a precision of <1 mV in a 1 s interval. […] Arch 3 WT retains the photo-induced proton-pumping, so illumination slightly hyperpolarizes the cell. […] The voltage-indicating protein reporters, sometimes referred to as genetically encoded voltage indicators (GEVIs), may be excited with a laser at wavelengths between 590-640 nm, and the emission is in the near infrared, peaked at 710 nm.

Changes are numbered by the printed parent chain. Names may count otherwise. “And” between values parts separate entries of the source, which are not always exact repeats. Identical values can stand only once. Like-named read-outs stand apart in the source and are kept apart here. Some results are limits rather than exact numbers.

From the text for cardiomyocytes: In some embodiments, the reporter cells also include an optical ion sensor that indicates an intracellular concentration of an ion, for example, a calcium reporter. In a preferred embodiment, the optical voltage reporter and the calcium reporter are provided together within a fusion protein. For example, the fusion protein may be CaViar which includes a calcium reporter and a voltage indicator. Using such a fusion protein, detecting the optical signal may include detecting an action potential and calcium transients.
The columns show results from increasing concentrations and each panel is fluorescence over time.

With `CO[C@H]1/C=C/O[C@@]2(C)Oc3c(C)c(O)c4c(O)c(c(/C=N/N5CCN(C)CC5)c(O)c4c3C2=O)NC(=O)/C(C)=C\C=C\[C@H](C)[C@H](O)[C@@H](C)[C@@H](O)[C@@H](C)[C@H](OC(C)=O)[C@@H]1C` [Rifampin], in series [1], the “induction of estrogen sulfotransferase” value was “induce”.
Consider `O=C(NCC1CCCCN1)c1cc(OCC(F)(F)F)ccc1OCC(F)(F)F` (stereo not drawn) [flecainide], for which, in the series with cardiomyocytes, the AP30 entry is listed as “decrease”, the AP60 result was “decrease”, the AP90 entry is “decrease” and the Ca amplitude entry is listed as “decrease”. In the series with cardiomyocytes, the “average action potential waveform” value was “diverge dramatically”; the “calcium trace (fluorescence over time)” value was “dramatically diminished”; the rise time entry is “increase”; the “rise time (average, FIG. 46)” value was “interferes with rise time”. In the series with cardiomyocytes, the “voltage trace (fluorescence over time)” value is given as “dramatically diminished”.
Turning to `COc1c(N2C[C@@H]3CCCN[C@@H]3C2)c(F)cc2c(=O)c(C(=O)O)cn(C3CC3)c12` [moxifloxacin], in the series with cardiomyocytes, the AP30 result is “decrease”, the AP60 entry is “decrease”, the AP90 entry is given as “decrease” and the Ca amplitude entry is given as “decrease”. For the same molecule, in the series on cardiomyocytes, the “average action potential waveform” value is given as “AP prolongation”, the “calcium trace (fluorescence over time)” value is “severely diminished”, the rise time result is “increase” and the “voltage trace (fluorescence over time)” value was “less pronounced effect”.
Take `CC(C)(C)C(O)/C=C/c1ccc2c(c1)OCO2` (stereo not drawn) [stiripentol]: the values for the spike frequency entry in the series on patient-derived neurons (acute doses) and in the series with patient-derived neurons (chronic doses) were “significantly decreased” and “decreased”, respectively. For the same molecule, in the series with patient-derived neurons (visual comparison of FIG. 52 to FIG. 53), the “impact on spike frequency, acute versus chronic exposure” value was “acute STR has a more severe impact on spike frequency than chronic exposure”.
Take `CC[N+](CC)(CC)CC` [tetraethylammonium]: the instantaneous firing rate result in the series on neurons (after a few seconds of increasing stimulus intensity, before vs after exposure) is listed as “unexposed cells (“before”) consistently fire at a higher rate”. Moreover, in the series on neurons (after exposure), the Ahp result is “change in Ahp”, the “number of spiking cells” value was “reduction in the number of spiking cells”, the “return of fluorescence to baseline (average waveform)” value was “does not return to baseline to the degree it did before exposure” and the spike height entry is listed as “lower”. Besides, in the series on neurons (lower stimulus intensities (time=0 to about 2 s), exposed cells), the instantaneous firing rate entry is given as “a few very high spikes in firing rate”.
Regarding Flash, in the series on membrane voltage [2], the “f (delta F/F per 100 mV)” value is listed as 5.1% and the response time is 2.8 to 85 ms.

B1: Arch 3 WT: wild type Archaerhodopsin 3, light-driven proton pump from Halorubrum sodomense used as fluorescent voltage indicator (protein, UniProt P96787 7-258, looked up)
Archaerhodopsin-3: QAGYDLLGDGRPETLWLGIGTLLMLIGTFYFLVRGWGVTDKDAREYYAVTILVPGIASAAYLSMFFGIGLTEVTVGGEMLDIYYARYADWLFTTPLLLLDLALLAKVDRVTIGTLVGVDALMIVTGLIGALSHTAIARYSWWLFSTICMIVVLYFLATSLRSAAKERGPEVASTFNTLTALVLVLWTAYPILWIIGTEGAGVVGLGIETLLFMVLDVTAKVGFGFILLRSRAILGDTEAPEPSAGADVSAAD
In the case of B1, the “smallest voltage steps reported” value in the series on HEK 293T cells is 10 mV. Also, the “fluorescence increase (factor)” value in the series on HEK 293T cells (between −150 mV and +150 mV) was determined as 2. In the series on HEK 293T cells (rising and falling edge, time resolution of imaging system), the “response of fluorescence to a step in membrane potential” value is reported as at most 500 micro s. In addition, the “fluorescence oscillation amplitude retained relative to low-frequency amplitude” value with HEK 293T cells (sinusoidally varying membrane potential, f=1 kHz) amounted to 55%. This molecule also registered a step response time with HEK 293T cells (steps between −70 mV and +30 mV, resolution of imaging system) of under 0.5 ms. The “accuracy of reported voltage” value in the series on HEK 293T cells (timescales<12 s) is on record as 625 micro V/(Hz)̂(1/2). Moreover, the “time to 90% of step response” value with membrane voltage [3] is on record as 0.6 ms. For the same molecule, in the series on membrane voltage [3] (Arch indicators), the response time was < 0.5 ms and 0.6 ms.

B2: Arch D95N: Archaerhodopsin 3 with D95N mutation, voltage indicator (protein, UniProt P96787 7-258, looked up, variant D95N)
Archaerhodopsin-3: B1 Archaerhodopsin-3 with D89N
Regarding B2, in the series on membrane voltage [3] (Arch indicators), the “f (delta F/F per 100 mV)” value came out at 100% and the response time was found to be 41 ms.

The values are drawn from patent publication US20170292961A1, “SYSTEMS AND METHODS FOR ASSESSING INTER-CELL COMMUNICATION” (Q-STATE BIOSCIENCES, INC., priority 2014, published 2017).
